Legend:
[1] = molecular target: T1, recombinant human c-Met/HGF receptor (Homo sapiens, UniProt P08581); experiment: In vitro receptor tyrosine kinase assay, c-Met (DELFIA); assay type: biochemical; settings: ATP 10 uM, enzyme 25 nM; read-out: Potency in enzyme assays Cmet
T1 construct: His tag; made in house; host or cells: Hi-5 cells (Trichoplusia ni), recombinant baculovirus
Description: (§1) These tests measure the ability of compounds to inhibit the enzymatic activity of recombinant human c-Met/HGF receptor and VEGF receptor enzymatic activity.
A 1.3-kb cDNA corresponding to the intracellular domain of c-Met or c-Met IC (Genbank accession number NP000236-1 amino acid […]) is cloned into the BamHI/XhoI sites of the pBlueBacHis2A vector (Invitrogen) for the production of a histidine-tagged version of that enzyme. This construct is used to generate recombinant baculovirus using the Bac-N-Blue™ system according to the manufacturer's instructions (Invitrogen).
(§2) The c-Met IC protein is expressed in Hi-5 cells (Trichoplusia Ni) upon infection with recombinant baculovirus construct. Briefly, Hi-5 cells grown in suspension and maintained in serum-free medium (Sf900 II supplemented with gentamycin) at a cell density of about 2×10^6 cells/ml are infected with the above-mentioned viruses at a multiplicity of infection (MOI) of 0.2 during 72 hours at 27° C. with agitation at 120 rpm on a rotary shaker. Infected cells are harvested by centrifugation at 398 g for 15 min. Cell pellets are frozen at −80° C. until purification is performed.
All steps described in cell extraction and purification are performed at 4° C. Frozen Hi-5 cell pellets infected with the C-Met IC recombinant baculovirus are thawed and gently resuspended in Buffer A (20 mM Tris pH 8.0, 10% glycerol, 1 μg/ml pepstatin, 2 μg/ml Aprotinin and leupeptin, 50 μg/ml PMSF, 50 μg/ml TLCK and 10 μM E64, 0.5 mM DTT and 1 mM Levamisole) using 3 ml of buffer per gram of cells. The suspension is Dounce homogenized after which it is centrifuged at 22500 g, 30 min., 4° C. The supernatant (cell extract) is used as starting material for purification of c-Met IC.
The supernatant is loaded onto a QsepharoseFF column (Amersham Biosciences) equilibrated with Buffer B (20 mM Tris pH 8.0, 10% glycerol) supplemented with 0.05M NaCl. Following a ten column volume (CV) wash with equilibration buffer, bound proteins are eluted with a 5 CV salt linear gradient spanning from 0.05 to 1M NaCl in Buffer B. Typically, the conductivity of selected fractions rank between 6.5 and 37 mS/cm. This Qsepharose eluate has an estimated NaCl concentration of 0.33M and is supplemented with a 5M NaCl solution in order to increase NaCl concentration at 0.5M and also with a 5M Imidazole (pH 8.0) solution to achieve a final imidazole concentration of 15 mM. This material is loaded onto a HisTrap affinity column (GE Healthcare) equilibrated with Buffer C (50 mM NaPO4 pH 8.0, 0.5M NaCl, 10% glycerol) supplemented with 15 mM imidazole. After a 10 CV wash with equilibration buffer and an 8 CV wash with buffer C+40 mM imidazole, bound proteins are eluted with an 8 CV linear gradient (15 to 500 mM) of imidazole in buffer C. C-Met IC enriched fractions from this chromatography step are pooled based on SDS-PAGE analysis. This pool of enzyme undergoes buffer exchange using PD-10 column (GE Healthcare) against buffer D (25 mM HEPES pH 7.5, 0.1M NaCl, 10% glycerol and 2 mM β-mercaptoethanol). Final C-Met IC protein preparations concentrations are about 0.5 mg/ml with purity approximating 80%. Purified c-Met IC protein stocks are supplemented with BSA at 1 mg/ml, aliquoted and frozen at −80° C. prior to use in enzymatic assay.
Inhibition of c-Met/HGF receptor and VEGFR/KDR is measured in a DELFIA™ assay (Perkin Elmer). The substrate poly(Glu4,Tyr) is immobilized onto black high-binding polystyrene 96-well plates. The coated plates are washed and stored at 4° C. During the assay, enzymes are pre-incubated with inhibitor and Mg-ATP on ice in polypropylene 96-well plates for 4 minutes, and then transferred to the coated plates. The subsequent kinase reaction takes place at 30° C. for 10-30 minutes. ATP concentrations in the assay are 10 uM for C-Met (5× the Km) and 0.6 uM for VEGFR/KDR (2× the Km). Enzyme concentration is 25 nM (C-Met) or 5 nM (VEGFR/KDR). […]

[2] = molecular target: T2, VEGF receptor KDR (Homo sapiens, UniProt P35968); experiment: In vitro receptor tyrosine kinase assay, VEGF receptor KDR (DELFIA); assay type: biochemical; settings: ATP 0.6 uM, enzyme 5 nM; read-out: Potency in enzyme assays VEGF
T2 construct: made in house; host or cells: Sf9 cells (Spodoptera frugiperda), recombinant baculovirus
Description: as §1
In the case of VEGF receptor KDR a 1.6-kb cDNA corresponding to the catalytic domain of VEGFR2 or KDR (Genbank accession number AF035121 amino acid 806 to 1356) is cloned into the Pst I site of the pDEST20 Gateway vector (Invitrogen) for the production of a GST-tagged version of that enzyme. This construct is used to generate recombinant baculovirus using the Bac-to-Bac system according to the manufacturer's instructions (Invitrogen).
as §2, with “GST-VEGFR2806-1356” for “c-Met IC”, “Sf9” for “Hi-5”, “(Spodoptera frugiperda)” for “(Trichoplusia Ni)”, “0.1” for “0.2”
All steps described in cell extraction and purification are performed at 4° C. Frozen Sf9 cell pellets infected with the GST-VEGFR2806-1356 recombinant baculovirus re thawed and gently resuspended in Buffer A (PBS pH 7.3 supplemented with 1 μg/ml pepstatin, 2 μg/ml Aprotinin and leupeptin, 50 μg/ml PMSF, 50 μg/ml TLCK and 10 μM E64 and 0.5 mM DTT) using 3 ml of buffer per gram of cells. Suspension is Dounce homogenized and 1% Triton X-100 is added to the homogenate after which it is centrifuged at 22500 g, 30 min., 4° C. The supernatant (cell extract) is used as starting material for purification of GST-VEGFR2806-1356.
The supernatant is loaded onto a GST-agarose column (Sigma) equilibrated with PBS pH 7.3. Following a four column volume (CV) wash with PBS pH 7.3+1% Triton X-100 and 4 CV wash with buffer B (50 mM Tris pH 8.0, 20% glycerol and 100 mM NaCl), bound proteins are step eluted with 5 CV of buffer B supplemented with 5 mM DTT and 15 mM glutathion. GST-VEGFR2806-1356 enriched fractions from this chromatography step are pooled based on U.V. trace i.e. fractions with high O.D^-280- Final GST-VEGFR2806-1356 protein preparations concentrations are about 0.7 mg/ml with purity approximating 70%. Purified GST-VEGFR2806-1356 protein stocks are aliquoted and frozen at −80° C. prior to use in enzymatic assay.
Inhibition of c-Met/HGF receptor and VEGFR/KDR is measured in a DELFIA™ assay (Perkin Elmer). The substrate poly(Glu4,Tyr) is immobilized onto black high-binding polystyrene 96-well plates. The coated plates are washed and stored at 4° C. During the assay, enzymes are pre-incubated with inhibitor and Mg-ATP on ice in polypropylene 96-well plates for 4 minutes, and then transferred to the coated plates. The subsequent kinase reaction takes place at 30° C. for 10-30 minutes. ATP concentrations in the assay are 10 uM for C-Met (5× the Km) and 0.6 uM for VEGFR/KDR (2× the Km). Enzyme concentration is 25 nM (C-Met) or 5 nM (VEGFR/KDR). After incubation, the kinase reactions are quenched with EDTA and the plates are washed. Phosphorylated product is detected by incubation with Europium-labeled anti-phosphotyrosine MoAb. After washing the plates, bound MoAb is detected by time-resolved fluorescence in a Gemini SpectraMax reader (Molecular Devices). Compounds are evaluated over a range of concentrations and IC50's (concentration of compounds giving 50% inhibition of enzymatic activity) are determined.

[3] = system: A549; experiment: A549 wound healing inhibition; settings: Homo sapiens; A549 cells; read-out: Potency in cell-based assays A549 wound healing inhibition
[4] = system: DU145; experiment: DU145 scattering inhibition; settings: Homo sapiens, DU-145; DU145 cells; read-out: Potency in cell-based assays DU145 scattering inhibition

T1 sequence (P08581 1078-1337): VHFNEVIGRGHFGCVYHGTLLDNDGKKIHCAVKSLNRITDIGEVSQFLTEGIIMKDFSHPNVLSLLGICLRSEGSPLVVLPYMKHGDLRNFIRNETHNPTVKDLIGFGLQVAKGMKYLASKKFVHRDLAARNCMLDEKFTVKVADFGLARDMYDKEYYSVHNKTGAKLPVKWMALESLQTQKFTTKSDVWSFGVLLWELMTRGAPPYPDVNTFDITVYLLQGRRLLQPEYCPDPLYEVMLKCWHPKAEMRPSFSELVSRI
T2 sequence (P35968 806-1356): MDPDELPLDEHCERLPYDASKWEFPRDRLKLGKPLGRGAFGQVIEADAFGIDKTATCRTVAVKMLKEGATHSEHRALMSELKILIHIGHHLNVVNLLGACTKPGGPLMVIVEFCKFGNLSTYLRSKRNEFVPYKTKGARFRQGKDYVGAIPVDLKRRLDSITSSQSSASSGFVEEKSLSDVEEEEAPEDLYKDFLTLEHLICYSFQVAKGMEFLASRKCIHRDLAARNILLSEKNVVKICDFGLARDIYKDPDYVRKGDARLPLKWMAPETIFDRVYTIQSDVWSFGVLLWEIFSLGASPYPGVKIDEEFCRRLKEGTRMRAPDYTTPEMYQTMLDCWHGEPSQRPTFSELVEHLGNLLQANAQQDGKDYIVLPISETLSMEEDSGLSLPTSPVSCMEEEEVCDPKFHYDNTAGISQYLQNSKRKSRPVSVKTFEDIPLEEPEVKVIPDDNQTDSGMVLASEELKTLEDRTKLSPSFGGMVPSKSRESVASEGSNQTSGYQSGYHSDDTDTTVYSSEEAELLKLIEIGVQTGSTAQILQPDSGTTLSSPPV

| SMILES | IC50 [1] | IC50 [2] | IC50 [3] | IC50 [4] |
| --- | --- | --- | --- | --- |
| CN(C)[C@@H]1CCN(C(=O)Nc2cc(Oc3ccc(NC(=O)N4CCN(c5ccc(F)cc5)C4=O)cc3F)ccn2)C1 [Compound 18g, (R)-N-(4-(2-(3-(dimethylamino)pyrrolidine-1-carboxamido)pyridin-4-yloxy)-3-fluorophenyl)-3-(4-fluorophenyl)-2-oxoimidazolidine-1-carboxamide] | < 250 nM | < 250 nM | ≥ 1 µM | ≥ 1 µM |
| CN(C)[C@H]1CCN(C(=O)Nc2cc(Oc3ccc(NC(=O)N4CCN(c5ccc(F)cc5)C4=O)cc3F)ccn2)C1 [Compound 18h, (S)-N-(4-(2-(3-(dimethylamino)pyrrolidine-1-carboxamido)pyridin-4-yloxy)-3-fluorophenyl)-3-(4-fluorophenyl)-2-oxoimidazolidine-1-carboxamide] | < 250 nM | < 250 nM | ≥ 1 µM | ≥ 1 µM |
| CN(C)CCCOC(=O)Nc1cc(Oc2ccc(NC(=O)N3CCN(c4ccccc4)C3=O)cc2F)ccn1 [Compound 18i, 3-(dimethylamino)propyl4-(2-fluoro-4-(2-oxo-3-phenylimidazolidine-1-carboxamido)phenoxy),pyridin-2-ylcarbamate] | < 250 nM | ≥ 1000 nM | 1 to 5 µM | 1 to 5 µM |
| O=C(Nc1ccc(Oc2ccncc2)c(F)c1)N1CCN(c2cccc(C(F)(F)F)c2)C1=O [Compound 21c, N-(3-fluoro-4-(pyridin-4-yloxy)phenyl)-2-oxo-3-(3-(trifluoromethyl)phenyl)imidazolidine-1-carboxamide] | ≥ 1000 nM | ≥ 1000 nM | 5 to 10 µM | 5 to 10 µM |
| O=C(Nc1ccc(Oc2ccncc2)c(F)c1)N1CCN(c2ccc(Cl)cc2)C1=O [Compound 21f, 3-(4-chlorophenyl)-N-(3-fluoro-4-(pyridin-4-yloxy)phenyl)-2-oxoimidazolidine-1-carboxamide] | 250 to 500 nM | ≥ 1000 nM | 1 to 5 µM | 5 to 10 µM |
| O=C(Nc1ccc(Oc2ccncc2)c(F)c1)N1CCN(c2cccc(Cl)c2)C1=O [Compound 21g, 3-(3-chlorophenyl)-N-(3-fluoro-4-(pyridin-4-yloxy)phenyl)-2-oxoimidazolidine-1-carboxamide] | 500 to 1000 nM | ≥ 1000 nM | 5 to 10 µM | 5 to 10 µM |
| O=C(Nc1ccc(Oc2ccncc2)c(F)c1)N1CCN(c2ccccc2Cl)C1=O [Compound 21h, 3-(2-chlorophenyl)-N-(3-fluoro-4-(pyridin-4-yloxy)phenyl)-2-oxoimidazolidine-1-carboxamide] | 500 to 1000 nM | ≥ 1000 nM | 1 to 5 µM | ≥ 1 µM |
| CC(=O)Nc1ccc(Oc2cccc(NC(=O)N3CCN(c4ccccc4)C3=O)c2)cn1 [Compound 31a, N-(3-(6-acetamidopyridin-3-yloxy)phenyl)-2-oxo-3-phenylimidazolidine-1′-carboxamide] | 250 to 500 nM | ≥ 1000 nM | 1 to 5 µM | 5 to 10 µM |
| O=C(Nc1ccc(Oc2ccnc(Nc3ccccc3)c2)c(F)c1)N1CCN(c2ccccc2)C1=O [Compound 70, N-(3-fluoro-4-(2-(phenylamino)pyridin-4-yloxy)phenyl)-2-oxo-3-phenylimidazolidine-1-carboxamide] | < 250 nM | ≥ 1000 nM | 1 to 5 µM | 5 to 10 µM |

Other lines, results leading:

| IC50 [1] | IC50 [2] | IC50 [3] | IC50 [4] | SMILES |
| --- | --- | --- | --- | --- |
| 500 to 1000 nM | ≥ 1000 nM | 5 to 10 µM | > 10 µM | O=C(Nc1ccc(Oc2ccnc(Nc3ccccc3)n2)c(F)c1)N1CCN(c2ccccc2)C1=O [Compound 61a, N-(3-fluoro-4-(2-(phenylamino)pyrimidin-4-yloxy)phenyl)-2-oxo-3-phenyl-imidazolidine-1-carboxamide] |
| 500 to 1000 nM | ≥ 1000 nM | 5 to 10 µM | 5 to 10 µM | COc1ccc(Nc2nccc(Oc3ccc(NC(=O)N4CCN(c5ccccc5)C4=O)cc3F)n2)cc1 [Compound 61b, N-(3-fluoro-4-(2-(4-methoxyphenylamino)pyrimidin-4-yloxy)phenyl)-2-oxo-3-phenylimidazolidine-1-carboxamide] |
| 250 to 500 nM | 250 to 500 nM | 1 to 5 µM | 5 to 10 µM | CNC(=O)c1cc(Oc2ccc(NC(=O)N3CCN(c4ccccc4)C3=O)cc2F)ccn1 [Compound 87a, 4-(2-fluoro-4-(2-oxo-3-phenylimidazolidine-1-carboxamido)phenoxy)-N-methylpicolinamide] |

Reference: US20080255155A1, “KINASE INHIBITORS AND USES THEREOF” (priority 2006, published 2008)
